Data published in patent US20260374766A1, “METHODS FOR TREATING CANCER” (Antares Therapeutics, Inc., priority 2022, published 2026).

How the values were obtained:
H1299 p53 R273H = assay: Cell Proliferation Assay (CellTiter-Glo, CTG), H1299 p53 R273H (NClH1299-inducible p53 R273H); type: cell-based; details: Homo sapiens, NCI-H1299, 120 h, CellTiter-Glo, H1299 p53 R273H, 5 days
Outline: (§1)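 Tet-One inducible p53 Y220C or R273H constructs were stably introduced into NCI-H1299 by lentiviral transduction; NUGC3 was used as is. Cells (250-500 per well) were exposed to compound for 5 days, then CellTiter-Glo was added for 10 min at room temperature and IC50 was calculated from luminescence.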

NUGC3 p53 Y220C = assay: Cell Proliferation Assay (CellTiter-Glo, CTG), NUGC3 p53 Y220C; type: cell-based; details: Homo sapiens, NUGC-3, 120 h, CellTiter-Glo, NUGC3 p53 Y220C, 5 days
Outline: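 NClH1299 lines stably transduced with Tet-inducible p53 Y220C or R273H, plus NUGC3, were treated with compound for 5 days at 250-500 cells/well. IC50 derived from CellTiter-Glo luminescent signal after 10 min room-temperature incubation.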

H1299 p53 Y220C = assay: Cell Proliferation Assay (CellTiter-Glo, CTG), H1299 p53 Y220C (NClH1299-inducible p53 Y220C); type: cell-based; details: Homo sapiens, NCI-H1299, 120 h, CellTiter-Glo, H1299 p53 Y220C, 5 days
Outline: as §1

p53 Y220C = p53 Y220C (Homo sapiens, UniProt P04637, Y220C); assay: Luciferase Reporter Assay (Luc), p53 response element, NClH1299 cells with inducible p53 Y220C; type: cell-based; details: luciferase reporter, NClH1299 inducible p53 Y220C, 6 hour; for Emax: 10 uM tool compound as positive control; for AC50: read-out: Luc P53 Y220C AC50
Outline: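 Luminescence readout (One-Glo, 5 min shaking at RT, read at once) after 6 h compound exposure; cells pre-induced 24 h with 0.5 ug/mL doxycycline, 5,000/well.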

[1] = target: T1, p53 Y220C mutant protein (amino acid residues 94-293) (Homo sapiens, UniProt P04637, Y220C); assay: Thermal Shift Assay (TSA), dTM; type: binding; details: thermal shift; for ΔTm at 100 µM: 100 uM compound, read-out: TSA P53 Y220C dTM (100 uM)
T1 construct: p53 Y220C mutant protein (amino acid residues 94-293)
Outline: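 Recombinant p53 Y220C core (residues 94-293) at 5 μM was incubated with 10 μM or 100 μM compound for 3 hours at 20 °C in 20 mM HEPES pH7.4, 100 mM NaCl, 0.01% Pluronic F-127, 1% DMSO with 400-fold diluted Sypro Orange. Melting was followed from 30 °C to 50 °C at 0.03 °C/second, and TM came from a Boltzmann two-state fit.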

[2] = target: T1, p53 Y220C mutant protein (amino acid residues 94-293); assay: Surface Plasmon Resonance (SPR) assay, Kd_kinetic; type: binding; details: SPR, kinetic KD, p53 Y220C; read-out: SPR P53 Y220C KD kinetic
Outline: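 Kd values come from fitting sensorgrams to a 1:1 binding model. Sensorgrams were recorded on a Biacore 8K at 16 or 20 °C in pH 7.5 Tris buffer with 100 mM NaCl, 1 mM DTT, detergents and 1% DMSO.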

IC50 (H1299 p53 R273H)	IC50 (H1299 p53 Y220C)	Emax (p53 Y220C)	AC50 (p53 Y220C)	ΔTm at 100 µM [1]	Kd [2]	ΔTm at 10 µM ([1]; 10 uM compound, read-out: TSA P53 Y220C dTM (10 uM))	SMILES	IC50 (NUGC3 p53 Y220C)
≥ 10 µM	750 to 1500 nM	70 to 80%	1500 to 3000 nM	≥ 10 °C	10 to 100 nM	–	COc1cc(S(N)(=O)=O)ccc1NCC#Cc1nc2c(N[C@@H]3CCN(C)C[C@@H]3F)cccn2c1CC(F)(F)F [Example 63, 4-{[3-(8-{[(3S,4R)-3-fluoro-1-methylpiperidin-4-yl]amino}-3-(2,2,2-trifluoroethyl)imidazo[1,2-a]pyridin-2-yl)prop-2-yn-1-yl]amino}-3-methoxybenzenesulfonamide]	750 to 1500 nM
8 to 10 µM	< 750 nM	70 to 80%	750 to 1500 nM	≥ 10 °C	< 10 nM	≥ 10 °C	CNS(=O)(=O)c1ccc(NCC#Cc2nc3c(N[C@@H]4CCN(C)C[C@@H]4F)cccn3c2CC(F)(F)F)c(OC)c1 [Example 64, 4-{[3-(8-{[(3S,4R)-3-fluoro-1-methylpiperidin-4-yl]amino}-3-(2,2,2-trifluoroethyl)imidazo[1,2-a]pyridin-2-yl)prop-2-yn-1-yl]amino}-3-methoxy-N-methylbenzenesulfonamide]	< 750 nM
5 to 8 µM	750 to 1500 nM	70 to 80%	< 750 nM	≥ 10 °C	10 to 100 nM	–	COc1cc(S(=O)(=O)N(C)C)ccc1NCC#Cc1nc2c(N[C@@H]3CCN(C)C[C@@H]3F)cccn2c1CC(F)(F)F [Example 65, 4-{[3-(8-{[(3S,4R)-3-fluoro-1-methylpiperidin-4-yl]amino}-3-(2,2,2-trifluoroethyl)imidazo[1,2-a]pyridin-2-yl)prop-2-yn-1-yl]amino}-3-methoxy-N,N-dimethylbenzenesulfonamide]	750 to 1500 nM
5 to 8 µM	< 750 nM	70 to 80%	< 750 nM	≥ 10 °C	< 10 nM	–	CCS(=O)(=O)c1ccc(NCC#Cc2nc3c(N[C@@H]4CCN(C)C[C@@H]4F)cccn3c2CC(F)(F)F)c(OC)c1 [Example 66, (3S,4R)—N-[2-(3-{[4-(ethanesulfonyl)-2-methoxyphenyl]amino}prop-1-yn-1-yl)-3-(2,2,2-trifluoroethyl)imidazo[1,2-a]pyridin-8-yl]-3-fluoro-1-methylpiperidin-4-amine]	< 750 nM
5 to 8 µM	< 750 nM	70 to 80%	< 750 nM	≥ 10 °C	< 10 nM	–	COc1cc(S(=O)(=O)C2CC2)ccc1NCC#Cc1nc2c(N[C@@H]3CCN(C)C[C@@H]3F)cccn2c1CC(F)(F)F [Example 67, (3S,4R)—N-[2-(3-{[4-(cyclopropanesulfonyl)-2-methoxyphenyl]amino}prop-1-yn-1-yl)-3-(2,2,2-trifluoroethyl)imidazo[1,2-a]pyridin-8-yl]-3-fluoro-1-methylpiperidin-4-amine]	< 750 nM
≥ 10 µM	1500 to 3000 nM	70 to 80%	1500 to 3000 nM	5 to 10 °C	10 to 100 nM	–	CN1CC[C@@H](Nc2cccn3c(CC(F)(F)F)c(C#CCNc4ccc(S(C)(=O)=O)cc4F)nc23)[C@@H](F)C1 [Example 68, (3S,4R)-3-fluoro-N-(2-{3-[(2-fluoro-4-methanesulfonylphenyl)amino]prop-1-yn-1-yl}-3-(2,2,2-trifluoroethyl)imidazo [1,2-a]pyridin-8-yl)-1-methylpiperidin-4-amine]	1500 to 3000 nM
≥ 10 µM	750 to 1500 nM	70 to 80%	1500 to 3000 nM	5 to 10 °C	< 10 nM	–	CN1CC[C@@H](Nc2cccn3c(CC(F)(F)F)c(C#CCNc4ccc(S(C)(=O)=O)cc4)nc23)[C@@H](F)C1 [Example 76, (3S,4R)-3-fluoro-N-(2-{3-[(4-methanesulfonylphenyl)amino]prop-1-yn-1-yl}-3-(2,2,2-trifluoroethyl)imidazo[1,2-a]pyridin-8-yl)-1-methylpiperidin-4-amine]	750 to 1500 nM

Continued, compound first:

SMILES	IC50 (H1299 p53 R273H)	IC50 (H1299 p53 Y220C)	Emax (p53 Y220C)	AC50 (p53 Y220C)	ΔTm at 100 µM [1]	Kd [2]	ΔTm at 10 µM ([1]; 10 uM compound, read-out: TSA P53 Y220C dTM (10 uM))	IC50 (NUGC3 p53 Y220C)
CNC(=O)c1ccc(NCC#Cc2nc3c(N[C@@H]4CCN(C)C[C@@H]4F)cccn3c2CC(F)(F)F)c(OCC(F)(F)F)c1 [Example 61, 4-{[3-(8-{[(3S,4R)-3-fluoro-1-methylpiperidin-4-yl]amino}-3-(2,2,2-trifluoroethyl)imidazo[1,2-a]pyridin-2-yl)prop-2-yn-1-yl]amino}-N-methyl-3-(2,2,2-trifluoroethoxy)benzamide]	≥ 10 µM	< 750 nM	80 to 90%	750 to 1500 nM	5 to 10 °C	10 to 100 nM	–	750 to 1500 nM
CNC(=O)c1ccc(NCC#Cc2nc3c(N[C@@H]4CCN(C)C[C@@H]4F)cccn3c2CC(F)(F)F)c(OCCOC)c1 [Example 62, 4-{[3-(8-{[(3S,4R)-3-fluoro-1-methylpiperidin-4-yl]amino}-3-(2,2,2-trifluoroethyl)imidazo[1,2-a]pyridin-2-yl)prop-2-yn-1-yl]amino}-3-(2-methoxyethoxy)-N-methylbenzamide]	≥ 10 µM	750 to 1500 nM	70 to 80%	750 to 1500 nM	≥ 10 °C	< 10 nM	–	750 to 1500 nM
CN1CC[C@@H](Nc2cccn3c(CC(F)(F)F)c(C#CC(C)(C)O)nc23)[C@@H](F)C1 [Example 69, 4-(8-{[(3S,4R)-3-fluoro-1-methylpiperidin-4-yl]amino}-3-(2,2,2-trifluoroethyl)imidazo[1,2-a]pyridin-2-yl)-2-methylbut-3-yn-2-ol]	≥ 10 µM	> 3000 nM	< 70%	> 3000 nM	5 to 10 °C	100 to 1000 nM	–	> 3000 nM
C[C@@H](O)C#Cc1nc2c(N[C@@H]3CCN(C)C[C@@H]3F)cccn2c1CC(F)(F)F [Example 70, (2R)-4-(8-{[(3S,4R)-3-fluoro-1-methylpiperidin-4-yl]amino}-3-(2,2,2-trifluoroethyl)imidazo[1,2-a]pyridin-2-yl)but-3-yn-2-ol]	≥ 10 µM	> 3000 nM	< 70%	> 3000 nM	5 to 10 °C	10 to 100 nM	–	> 3000 nM
C[C@H](O)C#Cc1nc2c(N[C@@H]3CCN(C)C[C@@H]3F)cccn2c1CC(F)(F)F [Example 71, (2S)-4-(8-{[(3S,4R)-3-fluoro-1-methylpiperidin-4-yl]amino}-3-(2,2,2-trifluoroethyl)imidazo[1,2-a]pyridin-2-yl)but-3-yn-2-ol]	≥ 10 µM	> 3000 nM	< 70%	> 3000 nM	5 to 10 °C	100 to 1000 nM	–	> 3000 nM
CN1CC[C@@H](Nc2cccn3c(CC(F)(F)F)c(C#C[C@@H](O)c4ccccc4)nc23)[C@@H](F)C1 [Example 72, (1S)-3-(8-{[(3S,4R)-3-fluoro-1-methylpiperidin-4-yl]amino}-3-(2,2,2-trifluoroethyl)imidazo[1,2-a]pyridin-2-yl)-1-phenylprop-2-yn-1-ol]	< 5 µM	1500 to 3000 nM	< 70%	> 3000 nM	1 to 5 °C	> 1000 nM	–	750 to 1500 nM
CN1CC[C@@H](Nc2cccn3c(CC(F)(F)F)c(C#C[C@H](O)c4ccccc4)nc23)[C@@H](F)C1 [Example 73, (1R)-3-(8-{[(3S,4R)-3-fluoro-1-methylpiperidin-4-yl]amino}-3-(2,2,2-trifluoroethyl)imidazo[1,2-a]pyridin-2-yl)-1-phenylprop-2-yn-1-ol]	< 5 µM	1500 to 3000 nM	< 70%	> 3000 nM	5 to 10 °C	100 to 1000 nM	–	1500 to 3000 nM
CN1CC[C@@H](Nc2cccn3c(CC(F)(F)F)c(C#CCCN)nc23)[C@@H](F)C1 [Example 74, (3S,4R)—N-[2-(4-aminobut-1-yn-1-yl)-3-(2,2,2-trifluoroethyl)imidazo[1,2-a]pyridin-8-yl]-3-fluoro-1-methylpiperidin-4-amine]	≥ 10 µM	> 3000 nM	< 70%	> 3000 nM	5 to 10 °C	100 to 1000 nM	–	> 3000 nM
